# Test results from US4933336A, “Thiadiazinone, oxadiazinone and triazinone derivatives, and their use for treating acute or chronic heart disease” (Laboratoires Sobio S.A., priority 1987, dated 1990).
# Read-outs that look alike come from different tables or passages of the source.
# What was measured:
# [1] = system: conscious instrumented Dog; experiment: Cardiotonic activity in the conscious instrumented Dog; assay type: in vivo, dog (male Beagle); conditions: Canis lupus familiaris, po; for change in vivo at 0.03 mg/kg: 0.03 mg/kg p.o.; for change in vivo at 10 mg/kg: 10.00 mg/kg p.o.; for change in vivo at 0.1 mg/kg: 0.10 mg/kg p.o.; for change in vivo at 0.3 mg/kg: 0.30 mg/kg p.o.; for change in vivo at 3 mg/kg: 3.00 mg/kg p.o.
# Protocol: Cardiotonic activity in the conscious instrumented Dog
# Male Beagle dogs, at least 2 years old, weighing 12 to 18 kg were anaesthetised with pentobarbital sodium (30 mg/kg i.v.). Respiration was maintained by a Harward pump, model 613a. The heart was exposed through a left thoracotomy and a pericardial cardle was formed. A high fidelity micromanometer (Koenigsberg P5 -P7) was inserted into left venitricular lumen through a stab incision at the apex. Wires were exteriorised to the back of the animals, placed into a size adapted jacket, and the chest closed. The experiments were conducted on the conscious dogs, 1 or 2 weeks after the surgery, when the animals had completely recovered.
# Measured parameters were : first derivative of left ventricular pressure, (dP/dt, mmHg/sec); heart rate (HR, beats/min.). A control period recording of 90 min. was made with the dogs placed in a quiet room, the recordings being made outside. Compounds to be tested were administered orally in gelatin capsules and the parameters measured for 5 hrs. at least.
# Results were expressed as the percentage of the maximum±SEM.
# [2] = system: Canine cardiac myofibrillar Ca++-dependent Mg++ ATPase; experiment: Measurement of myofibrillar Ca++-dependent Mg++ATPase activity (Ca++ sensitivity and maximal activity); assay type: biochemical, canine (dog); conditions: pH 7.0, 21° C.
# Protocol: 1. Measurement of myofibrillar Ca++-dependent Mg++ATPase activity
# the effect on myofibrillar Ca++sensitivity and on maximal activity of myofibrillar Ca++-dependent Mg++-ATPase was determined on canine cardiac myofibrils.
# (a) Contractile protein preparation
# Cardiac myofibrils free of membrane contaminants were prepared from left ventricular tissue of dog hearts using a modification of the method described by SOLARO et al, Biochem. Biophys. Acta, 245, 259-262, (1971). Before centrifugration, the heart homogenate was filtered through gauze.
# After Triton X-100 treatments, the myofibrillar fraction was washed once by resuspension and centrifugation in 10 volumes of 1 mM EGTA, […], 30 mM imidazole, 2 mM MgCl2, pH 7.0. The pellet was then washed three times in 10 volumes of the same buffer without EGTA. Before the last centrifugation, the suspension of myofibrils was filtered through a stainless steel sieve with 0.25 mm meshes.
# Myofibrils were kept in pellet overnight. Before use, the pellet was suspended in a small amount of buffer, the protein concentration was determined by the method of BRADFORD M., Anal. Biochem., 1976, 72, 248 and adjusted in order to have a concentration between 6 and 7 mg/ml.
# (b) Myofibrillar ATPase activity
# Ca++-dependent myfibrillar ATPase activity was determined at 21° C., pH 7.0, by measuring the rate of release of inorganic phosphate. All assays were performed within 24 hrs. of final purification, using the method described by SOLARO and RUEGG, CIRC. RES., 51, 290-4, (1982). Reaction mixtures (4 ml) containing 0.6-0.7 mg/ml myofibrillar protein, 80 mM KCl, 20 mM imidazole, 3 mM […], 1 mM EGTA, the desired amount of CaCl2, and the indicated concentration of drug or appropriate vehicle were preincubated for 6 min. prior to assay. The amount of CaCl2 was varied between 0 and 0.9 mM and the pCA (-log free Ca++) computed using 2.514×10^6 M^-1 as the apparent affinity of Ca++for EGTA at pH 7.0.
# Reactions were initiated by the addition of Na2 ATP to final concentration of 2 mM. After an incubation period of 12 min., reactions were quenched by the addition of an equal volume of ice-cold 10% trichloroacetic acid. The protein was pelleted by centrifugation (2000 g, 15 min.) and Pi was assayed in the supernatant fraction using a modification of the method described by LANZETTA et al, Anal. Biochem., 100, 95-97, (1979).
# The following solutions were prepared:
# (1) 3.7% ammonium heptamolybdate in 0.12N H2 SO4
# (2) 0.074% malachite green oxalate in 1% polyvinylic alcohol.
# the colour reagent was prepared by mixing an equal volume of solution (1) and (2) 15 min. before the assay. For the assay, 1700 μl of 1% H2 SO4 and 1 ml of colour reagent were added to 100 μl of sample. Colour development occurred at room temperature for 30 min. and was quenched by the addition of 200 μl of 1M tri-potassium citrate. The absorbance was measured at 620 millimicrons.
# The effect of each compound, tested at the indicated concentration, on the relation between pCa and percent activation was determined taking 100% for the maximum ATPase activity obtained with vehicle alone. The effect on Ca++ sensitivity was quantified by measuring the shift of the pCa giving 50% of the maximal control ATPase activity.
# The effect on maximal ATPase activity was expressed as the percent change of ATPase activity for pCa=5.47.
# [3] = read-out: H.R. (heart rate), percentage of the maximum ± SEM
# [4] = read-out: dP/dt Max (first derivative of left ventricular pressure), percentage of the maximum ± SEM
smiles,measurement,setting,value
"CC1SC(=O)NN=C1c1ccc2c(c1)C1(CC1)C(=O)N2 (centres unmarked) [Example 16, 5'-(3,6-Dihydro-6-methyl-2-oxo-2H-1,3,4 thiadiazin-5-yl) -spiro[cyclopropane-1,3'-[3H]indol]-2'-(1'H)-one]",change in vivo at 0.03 mg/kg,[1]; [3],21%
same,change in vivo at 0.03 mg/kg,[1]; [4],105%
"CSC1(C)C(=O)N(C(C)=O)c2ccc(C3=NNC(=O)SC3)cc21 (centres unmarked) [Example 9, 1-Acetyl-1,3-dihydro-5-(3,6-dihydro-2-oxo-2H-1,3,4-thiadiazin-5-yl)-3-methyl-3-methylthio-2H-indol-2-one]",change in vivo at 10 mg/kg,[1]; [3],16%
same,change in vivo at 10 mg/kg,[1]; [4],68%
"CC1SC(=O)NN=C1c1ccc2c(c1)C(C)(C)CC(=O)N2 (centres unmarked) [Example 35, 3,4-Dihydro-6-(3,6-dihydro-6-methyl-2-oxo-2H-1,3,4-thiadiazin-5-yl)-4,4-dimethyl-2(1H)-quinolinone]",Max ATPase activity (%) (percent change of ATPase activity for pCa=5.47),[2]; 3 × 10^-5 molar,-1 ± 2%
same,Ca2+ sensitivity p CA50 (shift of the pCa giving 50% of the maximal control ATPase activity),[2]; 3 × 10^-5 molar,0.45 ± 0.05
same,change in vivo at 0.1 mg/kg,[1]; [3],20%
same,change in vivo at 0.1 mg/kg,[1]; [4],49%
"CSC1C(=O)Nc2ccc(C3=NNC(=O)SC3C)cc21 (centres unmarked) [Example 10, 1,3-Dihydro-5-(3,6-dihydro-6-methyl-2-oxo-2H-1,3,4-thiadiazin-5-yl)-3-methylthio-2H-indol-2-one]",Max ATPase activity (%) (percent change of ATPase activity for pCa=5.47),[2]; 3 × 10^-5 molar,-9 ± 5%
same,Ca2+ sensitivity p CA50 (shift of the pCa giving 50% of the maximal control ATPase activity),[2]; 3 × 10^-5 molar,0.36 ± 0.02
"CC1(C)C(=O)Nc2ccc(C3=NNC(=O)SC3)cc21 [Example 2, 1,3-Dihydro-5-(3,6-dihydro-2-oxo-2H-1,3,4-thiadiazin-5-yl)-3,3,-dimethyl-2H-indol-2-one]",Max ATPase activity (%) (percent change of ATPase activity for pCa=5.47),[2]; 20 × 10^-5 molar,-9 ± 2%
same,Ca2+ sensitivity p CA50 (shift of the pCa giving 50% of the maximal control ATPase activity),[2]; 20 × 10^-5 molar,0.16 ± 0.07
"CC1C(=O)Nc2ccc(C3=NNC(=O)SC3)cc21 (centres unmarked) [Example 4, 1,3-Dihydro-5-(3,6-dihydro-2-oxo-2H-1,3,4-thiadiazin-5-yl)-3-methyl-2H-indol-2-one]",Max ATPase activity (%) (percent change of ATPase activity for pCa=5.47),[2]; 20 × 10^-5 molar,-6 ± 2%
same,Ca2+ sensitivity p CA50 (shift of the pCa giving 50% of the maximal control ATPase activity),[2]; 20 × 10^-5 molar,0.15 ± 0.03
"CC1SC(=O)NN=C1c1ccc2c(c1)C1(CCCC1)C(=O)N2 (centres unmarked) [Example 6, 5'-(3,6-Dihydro-6-methyl-2-oxo-2H-1,3,4-thiadiazin-5-yl)-spiro[cyclopentane-1,3'-[3H]-indol]-2'(1'H)one]",change in vivo at 0.3 mg/kg,[1]; [3],7%
same,change in vivo at 0.3 mg/kg,[1]; [4],33%
"CC1SC(=O)NN=C1c1ccc2c(c1)C1(SCCS1)C(=O)N2 (centres unmarked) [Example 13, 5'-(3,6-Dihydro-6-methyl-2-oxo-2H-1,3,4 thiadiazin-5-yl) -spiro 1,3-dithiolane-2,3'-3H indol-2(1'H)-one]",Max ATPase activity (%) (percent change of ATPase activity for pCa=5.47),[2]; 3 × 10^-5 molar,-11 ± 5%
same,Ca2+ sensitivity p CA50 (shift of the pCa giving 50% of the maximal control ATPase activity),[2]; 3 × 10^-5 molar,0.58 ± 0.04
same,change in vivo at 0.3 mg/kg,[1]; [3],15%
same,change in vivo at 0.3 mg/kg,[1]; [4],43%
"CC1SC(=O)NN=C1c1ccc2c(c1)C(C)(C)C(=O)N2C(=O)c1ccc(N)cc1 (centres unmarked) [Example 42, 1,3-Dihydro-5-(3,6-dihydro-6-methyl-2-oxo-2H-1,3,4-thiadiazin-5-yl)-3,3-dimethyl-1-[(4-aminophenyl)carbonyl]-2H-indol-2-one]",Max ATPase activity (%) (percent change of ATPase activity for pCa=5.47),[2]; 3 × 10^-5 molar,-9 ± 2%
same,Ca2+ sensitivity p CA50 (shift of the pCa giving 50% of the maximal control ATPase activity),[2]; 3 × 10^-5 molar,0.17 ± 0.03
"CC1SC(=O)NN=C1c1ccc2c(c1)C(C)(C)C(=O)N2C(=O)Oc1ccccc1 (centres unmarked) [Example 40, Phenyl 2,3-dihydro-5-(3,6-dihydro-6-methyl-2-oxo-2H-1,3,4-thiadiazin-5-yl)-3,3-dimethyl-2-oxo-1H-indole-1-carboxylate]",Max ATPase activity (%) (percent change of ATPase activity for pCa=5.47),[2]; 3 × 10^-5 molar,+2 ± 2%
same,Ca2+ sensitivity p CA50 (shift of the pCa giving 50% of the maximal control ATPase activity),[2]; 3 × 10^-5 molar,0.15 ± 0.01
"CSC1(C)C(=O)Nc2ccc(C3=NNC(=O)SC3C)cc21 (centres unmarked) [Example 5, 1,3-Dihydro-5-(3,6-dihydro-6-methyl-2-oxo-2H-1,3,4-thiadiazin-5-yl)-3-methyl-3-methylthio-2H-indol-2-one]",Max ATPase activity (%) (percent change of ATPase activity for pCa=5.47),[2]; 20 × 10^-5 molar,-8 ± 1%
same,Ca2+ sensitivity p CA50 (shift of the pCa giving 50% of the maximal control ATPase activity),[2]; 20 × 10^-5 molar,0.40 ± 0.08
same,change in vivo at 0.03 mg/kg,[1]; [3],16%
same,change in vivo at 0.03 mg/kg,[1]; [4],45%
"CSC1(C)C(=O)Nc2ccc(C3=NNC(=O)SC3)cc21 (centres unmarked) [Example 1, 1,3-Dihydro-5-(3,6-dihydro-2-oxo-2H-1,3,4-thiadiazin-5-yl)-3-methyl-3-methylthio-2H-indol-2-one]",Max ATPase activity (%) (percent change of ATPase activity for pCa=5.47),[2]; 20 × 10^-5 molar,-3 ± 2%
same,Ca2+ sensitivity p CA50 (shift of the pCa giving 50% of the maximal control ATPase activity),[2]; 20 × 10^-5 molar,0.38 ± 0.03
same,change in vivo at 0.3 mg/kg,[1]; [3],17%
same,change in vivo at 0.3 mg/kg,[1]; [4],53%
CC1SC(=O)NN=C1c1ccc2c(c1)C1(CCCCC1)C(=O)N2 (centres unmarked) [Example 17],Max ATPase activity (%) (percent change of ATPase activity for pCa=5.47),[2]; 3 × 10^-5 molar,-17 ± 4%
same,Ca2+ sensitivity p CA50 (shift of the pCa giving 50% of the maximal control ATPase activity),[2]; 3 × 10^-5 molar,0.41 ± 0.07
same,change in vivo at 3 mg/kg,[1]; [3],9%
same,change in vivo at 3 mg/kg,[1]; [4],40%
"CC1SC(=O)NN=C1c1ccc2c(c1)C(=O)C(=O)N2 (centres unmarked) [Example 12, 5-(3,6-Dihydro-6-methyl-2-oxo-2H-1,3,4-thiadiazin-5-yl)-1H-indole-2,3-dione]",change in vivo at 0.3 mg/kg,[1]; [3],10%
same,change in vivo at 0.3 mg/kg,[1]; [4],51%
"CC1SC(=O)NN=C1c1ccc2c(c1)C(C)(C)C(=O)N2C(=O)c1ccccc1 (centres unmarked) [Example 22, 1-Benzoyl-1,3-dihydro-5-(3,6-dihydro-6-methyl-2-oxo-2H-1,3,4-thiadiazin-5-yl)-3,3-dimethyl-2H-indol-2-one]",change in vivo at 0.03 mg/kg,[1]; [3],14%
same,change in vivo at 0.03 mg/kg,[1]; [4],56%
"CC1NC(=O)NN=C1c1ccc2c(c1)C(C)(C)C(=O)N2 (centres unmarked) [Example 37, 1,3-Dihydro-5-(1,2,3,6-tetrahydro-6-methyl-2-oxo-1,3,4-triazin-5-yl)-3,3-dimethyl-2H-indol-2-one]",change in vivo at 0.03 mg/kg,[1]; [3],24%
same,change in vivo at 0.03 mg/kg,[1]; [4],85%
"CSC1(SC)C(=O)Nc2ccc(C3=NNC(=O)SC3C)cc21 (centres unmarked) [Example 15, 1,3-Dihydro-5-(3,6-dihydro-6-methyl-2-oxo-2H-1,3,4-thiadiazin-5-yl)-3.3-di(methylthio)-2H-indol-2 one]",Max ATPase activity (%) (percent change of ATPase activity for pCa=5.47),[2]; 3 × 10^-5 molar,-4 ± 1%
same,Ca2+ sensitivity p CA50 (shift of the pCa giving 50% of the maximal control ATPase activity),[2]; 3 × 10^-5 molar,0.37 ± 0.11
